Test results taken from ChEMBL document CHEMBL1201862, “PubChem BioAssay data set” (2004).
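Compound exposure: 48 hours, 5 concentrations, 96-well plates. Here, GI50 denotes the concentration required for 50% inhibition of growth.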 Activity calls are given as the source filed them. Rule as the data show it: active = GI50 up to about 1.1 µM and inactive = higher.

Legend:
Assay in all cases: NCI-60 cell line screen, 48 h
IGROV-1 = system: IGROV-1
OVCAR-3 = system: OVCAR-3
DU-145 = system: DU-145
CCRF-CEM = system: CCRF-CEM
NCI-H23 = system: NCI-H23
COLO 205 = system: COLO 205
T47D = system: T47D
TK-10 = system: TK-10
SK-MEL-5 = system: SK-MEL-5
UACC-257 = system: UACC-257
MOLT-4 = system: MOLT-4
SK-MEL-2 = system: SK-MEL-2
UACC-62 = system: UACC-62
EKVX = system: EKVX
SR = system: SR
SF-539 = system: SF-539
MCF7 = system: MCF7
KM12 = system: KM12
MDA-MB-435 = system: MDA-MB-435

Measured: GI50

CC(=O)N(C)c1cc(NCc2ccccc2)ccc1OCc1ccccc1
inactive: IGROV-1 16.4 µM | OVCAR-3 16.6 µM | DU-145 17.1 µM | CCRF-CEM 23.6 µM | NCI-H23 24.4 µM | COLO 205 22.3 µM | T47D 36.6 µM | TK-10 17.7 µM | SK-MEL-5 18.3 µM | UACC-257 17.3 µM | MOLT-4 25.8 µM | SK-MEL-2 16.9 µM | UACC-62 16.4 µM | EKVX 18.5 µM | SR 15.5 µM | SF-539 17.3 µM | MCF7 17.9 µM | KM12 21.3 µM | MDA-MB-435 16.6 µM

Cc1nc(O)c2ncn(CCO)c2n1
inactive: IGROV-1 > 100 µM | OVCAR-3 > 100 µM | DU-145 > 100 µM | CCRF-CEM > 100 µM | NCI-H23 > 100 µM | COLO 205 > 100 µM | T47D > 100 µM | TK-10 > 100 µM | SK-MEL-5 > 100 µM | UACC-257 > 100 µM | UACC-62 > 100 µM | EKVX > 100 µM | SR > 100 µM | SF-539 > 100 µM | MCF7 > 100 µM | KM12 > 100 µM | MDA-MB-435 > 100 µM

COc1c(CC=C(C)C)c(O)c(C(CC(C)C)c2c(O)c(C(C)=O)c(O)c3c2OC(C(C)(C)O)C3)c(O)c1C(C)=O (stereo unspecified) [ACROFOLIONE A]
inactive: IGROV-1 3.65 µM | OVCAR-3 5.42 µM | DU-145 4.71 µM | CCRF-CEM 5.36 µM | NCI-H23 3.75 µM | COLO 205 4.46 µM | T47D 3.21 µM | SK-MEL-5 3.41 µM | UACC-257 3.2 µM | MOLT-4 3.4 µM | UACC-62 5.26 µM | EKVX 4.51 µM | SR 2.82 µM | SF-539 4.93 µM | MCF7 4.26 µM | MDA-MB-435 4.86 µM

c1ccc(C2=C(c3ccccc3)P(c3ccccc3)C2)cc1 (stereo unspecified)
inactive: IGROV-1 64.3 µM | OVCAR-3 78.7 µM | DU-145 > 100 µM | CCRF-CEM 22.5 µM | COLO 205 > 100 µM | T47D > 100 µM | TK-10 > 100 µM | UACC-257 > 100 µM | MOLT-4 22.1 µM | SK-MEL-2 > 100 µM | SR 22.8 µM | SF-539 > 100 µM | MCF7 > 100 µM | KM12 49.7 µM | MDA-MB-435 57.4 µM

CC(=O)NC1C(OCc2ccccc2)OC(CO)C(O)C1OCC(=O)NC(C)C(=O)NC(CCC(=O)NCCCCNc1ccc([N+](=O)[O-])c2[nH]c3ccccc3c(=O)c12)C(N)=O (stereo unspecified)
inactive: IGROV-1 56 µM | OVCAR-3 > 100 µM | DU-145 > 100 µM | NCI-H23 > 100 µM | COLO 205 > 100 µM | T47D > 100 µM | TK-10 92.9 µM | SK-MEL-2 > 100 µM | EKVX 88.5 µM | SR 2.87 µM | SF-539 49.3 µM | MCF7 > 100 µM | KM12 90.2 µM | MDA-MB-435 > 100 µM
